{
  "source": "ChEMBL document CHEMBL1201862",
  "about": "“PubChem BioAssay data set” (2004)",
  "key": {"[1]": {"molecular_target": "T1, Methionyl-tRNA synthetase, putative (Trypanosoma brucei brucei, UniProt Q38C91)", "T1 sequence (Q38C91 whole entry)": "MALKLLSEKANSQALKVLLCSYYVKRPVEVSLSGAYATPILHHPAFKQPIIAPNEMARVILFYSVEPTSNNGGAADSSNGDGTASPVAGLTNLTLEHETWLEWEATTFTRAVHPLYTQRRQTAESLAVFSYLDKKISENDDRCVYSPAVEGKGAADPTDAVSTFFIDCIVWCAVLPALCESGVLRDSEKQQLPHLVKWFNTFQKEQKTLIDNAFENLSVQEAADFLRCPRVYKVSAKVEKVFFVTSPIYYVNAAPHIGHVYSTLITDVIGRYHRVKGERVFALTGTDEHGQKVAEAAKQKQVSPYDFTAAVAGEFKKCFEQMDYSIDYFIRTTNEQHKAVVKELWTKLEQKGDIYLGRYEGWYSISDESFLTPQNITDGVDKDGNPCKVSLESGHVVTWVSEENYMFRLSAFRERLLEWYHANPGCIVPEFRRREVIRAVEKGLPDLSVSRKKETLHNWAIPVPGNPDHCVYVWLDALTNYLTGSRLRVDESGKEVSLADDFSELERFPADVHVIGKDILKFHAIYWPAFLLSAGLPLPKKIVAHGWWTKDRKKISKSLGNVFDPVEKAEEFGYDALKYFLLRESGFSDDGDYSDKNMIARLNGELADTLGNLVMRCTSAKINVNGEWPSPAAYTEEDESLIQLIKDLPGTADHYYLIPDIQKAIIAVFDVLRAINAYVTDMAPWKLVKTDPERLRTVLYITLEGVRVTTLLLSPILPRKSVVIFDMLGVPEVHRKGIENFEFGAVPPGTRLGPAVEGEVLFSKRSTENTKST", "type": "functional, Trypanosoma brucei brucei strain 927/4 GUTat10.1"}, "[2]": {"assay": "Late stage counterscreen for inhibitors of Trypanosoma brucei methionyl tRNA synthetase (MetRS): Luminescence-based cell-based high throughput dose response assay to identify compounds that are cytotoxic to Jurkat human T lymphocyte cells.", "type": "functional"}, "Streptokinase A": {"molecular_target": "T2, Streptokinase A (Streptococcus pyogenes serotype M1, UniProt P10520)", "T2 sequence (P10520 whole entry)": "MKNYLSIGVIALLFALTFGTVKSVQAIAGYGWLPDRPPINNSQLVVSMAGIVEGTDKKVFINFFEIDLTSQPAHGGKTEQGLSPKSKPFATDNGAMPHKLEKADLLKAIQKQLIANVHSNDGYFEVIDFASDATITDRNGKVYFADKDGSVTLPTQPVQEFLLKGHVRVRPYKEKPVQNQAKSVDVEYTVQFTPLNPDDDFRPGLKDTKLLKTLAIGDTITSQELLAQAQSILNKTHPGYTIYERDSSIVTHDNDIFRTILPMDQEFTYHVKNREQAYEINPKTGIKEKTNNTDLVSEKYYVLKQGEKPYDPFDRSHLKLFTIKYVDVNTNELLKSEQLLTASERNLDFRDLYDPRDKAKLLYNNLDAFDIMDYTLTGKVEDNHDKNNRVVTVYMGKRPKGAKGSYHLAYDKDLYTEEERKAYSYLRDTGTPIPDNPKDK", "assay": "viability-normalized secreted streptokinase activity reduction – plasminogen activation absorbance, OD405, dose response (AID 1914);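 note: secreted streptokinase activity via plasminogen activation per viability signal from cell pellet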", "type": "functional, Streptococcus pyogenes M1 GAS"}, "[3]": {"assay": "Counterscreen for inhibitors of Trypanosoma brucei methionyl tRNA synthetase (MetRS): Luminescence-based cell-based high throughput dose response assay to identify compounds that are cytotoxic to Jurkat human T lymphocyte cells.", "type": "functional"}, "[4]": {"tested_on": "Streptococcus sp. 'group A'", "assay": "Streptococcus pyogenes SK(-)GAS viability under kanamycin – luminescence, BacTiterGlo, confirmation, counter-screen for streptokinase expression inhibitor project, dose response (AID 1900)", "type": "functional, organism-based"}, "Streptococcus": {"tested_on": "Streptococcus", "assay": "GAS UMAA2166 growth inhibition – luminescence, BacTiterGlo, counter-screen for streptokinase expression inhibitor project, dose response (AID 1915);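 note: potency for reduction of bacterial viability or growth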", "type": "functional, organism-based"}, "[5]": {"molecular_target": "T1, Methionyl-tRNA synthetase, putative", "type": "functional, Trypanosoma brucei brucei strain 927/4 GUTat10.1", "remark": "listed apart in the source"}, "[6]": {"assay": "Luminescence-based cell-based high throughput dose response assay to identify activators of the DAF-12 from the parasite S. stercoralis (ssDAF-12).", "type": "functional"}, "[7]": {"molecular_target": "T3, Oxysterols receptor LXR-beta (Homo sapiens, UniProt P55055)", "T3 sequence (P55055 whole entry)": "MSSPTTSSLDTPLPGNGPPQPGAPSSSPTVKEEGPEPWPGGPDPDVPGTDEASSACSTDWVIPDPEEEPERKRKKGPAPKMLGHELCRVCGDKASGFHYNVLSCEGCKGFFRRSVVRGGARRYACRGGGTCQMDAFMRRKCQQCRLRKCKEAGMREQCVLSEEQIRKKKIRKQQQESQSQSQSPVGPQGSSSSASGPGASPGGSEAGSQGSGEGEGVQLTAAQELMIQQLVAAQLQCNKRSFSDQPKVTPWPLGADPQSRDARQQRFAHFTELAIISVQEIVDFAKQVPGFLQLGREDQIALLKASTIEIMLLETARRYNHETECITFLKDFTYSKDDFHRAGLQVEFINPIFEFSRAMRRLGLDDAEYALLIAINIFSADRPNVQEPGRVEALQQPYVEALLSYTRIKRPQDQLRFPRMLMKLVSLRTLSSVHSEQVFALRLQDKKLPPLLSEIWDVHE", "assay": "LXR agonists, Gal4 luciferase reporter, dose response, counter-screen for ssDAF-12 agonist project, cell-based, luminescence, HEK293, S. stercoralis campaign (AID 720737)", "type": "functional", "conditions": "read-out: IC50 (the source's name)"}, "[8]": {"molecular_target": "Sphingosine 1-phosphate receptor 2 (Homo sapiens, UniProt O95136)", "sequence (O95136 whole entry)": "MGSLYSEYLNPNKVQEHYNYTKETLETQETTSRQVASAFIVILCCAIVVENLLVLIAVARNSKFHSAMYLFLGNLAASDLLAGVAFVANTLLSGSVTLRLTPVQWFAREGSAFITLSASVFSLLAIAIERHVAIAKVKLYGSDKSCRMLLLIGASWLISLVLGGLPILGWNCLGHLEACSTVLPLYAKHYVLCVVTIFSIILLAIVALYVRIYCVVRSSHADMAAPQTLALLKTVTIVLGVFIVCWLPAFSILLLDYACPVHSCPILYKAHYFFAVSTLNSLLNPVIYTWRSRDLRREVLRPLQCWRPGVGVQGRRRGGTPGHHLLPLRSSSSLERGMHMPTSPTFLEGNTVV", "assay": "Dose Response Cell Based Assay for Agonists of the S1P2 Receptor. [Related pubchem assays: 729, 736, 843 ]", "type": "functional"}, "[9]": {"assay": "HIV-1 Vif–A3G interaction blockers – biochemical, TR-FRET, GST-Vif 1-94, biotin-A3G peptide, dose response retest, primary screen (AID 1117319);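 note: TR-FRET signal of purified GST-Vif binding a biotinylated A3G peptide; inhibitors lower the FRET signal by blocking Vif and A3G binding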", "type": "functional"}, "[10]": {"molecular_target": "T4, Tyrosine-protein phosphatase non-receptor type 7 (Homo sapiens, UniProt P35236)", "T4 sequence (P35236 whole entry)": "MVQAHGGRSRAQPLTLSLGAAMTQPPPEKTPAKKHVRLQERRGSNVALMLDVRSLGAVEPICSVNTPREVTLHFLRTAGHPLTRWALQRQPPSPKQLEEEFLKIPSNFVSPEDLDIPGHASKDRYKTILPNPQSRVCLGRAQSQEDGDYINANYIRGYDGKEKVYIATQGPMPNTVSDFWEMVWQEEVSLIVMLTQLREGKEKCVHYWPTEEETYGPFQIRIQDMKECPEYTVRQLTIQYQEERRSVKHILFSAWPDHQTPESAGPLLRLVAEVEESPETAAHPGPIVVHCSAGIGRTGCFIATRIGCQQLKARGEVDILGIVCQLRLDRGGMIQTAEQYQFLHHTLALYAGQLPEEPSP", "assay": "HePTP tyrosine phosphatase activity blockers – biochemical, absorbance, leukemia target, primary screen (AID 521)", "type": "functional"}, "[11]": {"molecular_target": "T5, Mannose-6-phosphate isomerase (Homo sapiens, UniProt P34949)", "T5 sequence (P34949 whole entry)": "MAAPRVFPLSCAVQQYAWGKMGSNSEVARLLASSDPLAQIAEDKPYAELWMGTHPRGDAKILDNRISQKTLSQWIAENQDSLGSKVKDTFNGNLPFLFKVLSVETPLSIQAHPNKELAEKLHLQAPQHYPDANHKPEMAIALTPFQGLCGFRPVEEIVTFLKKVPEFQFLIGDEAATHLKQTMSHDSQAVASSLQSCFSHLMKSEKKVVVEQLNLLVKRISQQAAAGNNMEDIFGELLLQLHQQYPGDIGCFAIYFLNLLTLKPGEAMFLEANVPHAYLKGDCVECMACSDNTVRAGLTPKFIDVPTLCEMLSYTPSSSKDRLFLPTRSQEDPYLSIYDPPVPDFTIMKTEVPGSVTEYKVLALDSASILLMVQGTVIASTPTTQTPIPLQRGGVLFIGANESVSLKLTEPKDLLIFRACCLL", "assay": "MPI enzyme activity inhibition – biochemical, fluorescence intensity, coupled assay, primary screen (AID 1209)"}, "[12]": {"molecular_target": "T5, Mannose-6-phosphate isomerase", "assay": "MPI inhibition at elevated mannose 6-phosphate – biochemical, fluorescence intensity, high mannose 6-phosphate, primary screen (AID 1220)"}, "[13]": {"assay": "viability loss in THP-1 monocytes – THP-1 cells, cytotoxicity control for Vif-APOBEC3G degradation inhibitor project, dose response (AID 1117359)", "type": "functional", "conditions": "THP-1"}, "Protein Tat": {"molecular_target": "T6, Protein Tat (Human immunodeficiency virus type 1 group M subtype B (isolate HXB2)(HIV-1), UniProt P04608)", "T6 sequence (P04608 whole entry)": "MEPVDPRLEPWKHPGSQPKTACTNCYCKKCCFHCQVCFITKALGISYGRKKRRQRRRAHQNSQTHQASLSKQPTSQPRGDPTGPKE", "type": "functional"}},
  "note": "Calls of active or inactive are those of the source.",
  "data": [
    {"smiles": "O=C1CC(N(CCc2ccccc2)C(=S)Nc2ccccc2)C(=O)N1c1ccc(Br)cc1", "note": "(centres undefined)", "values": [
      {"measurement": "IC50", "setting": "[1]", "result": "0.743 µM (active)"},
      {"measurement": "IC50", "setting": "[2]", "result": "15.4 µM (inactive)"},
      {"measurement": "EC50", "setting": "Streptokinase A", "result": "2.67 µM (active)"},
      {"measurement": "IC50", "setting": "[3]", "result": "25.3 µM (inactive)"},
      {"measurement": "EC50", "setting": "[4]", "result": "2.87 µM (active)"},
      {"measurement": "EC50", "setting": "Streptococcus", "result": "18.3 µM (active)"},
      {"measurement": "IC50", "setting": "[5]", "result": "0.46 µM (active)"}
    ]},
    {"smiles": "Cc1cc(NC(=S)NC(=O)/C=C/c2ccc(S(=O)(=O)N3CCOCC3)cc2)ccc1Br", "values": [
      {"measurement": "IC50", "setting": "[6]", "result": "> 67.5 µM (inactive)"},
      {"measurement": "EC50", "setting": "[7]", "result": "> 67.5 µM (inactive)"}
    ]},
    {"smiles": "COc1ccccc1CNC(=O)c1c(N)n(CCCN2CCOCC2)c2nc3ccccc3nc12", "values": [
      {"measurement": "EC50", "setting": "[8]", "result": "3.9 µM (active)"}
    ]},
    {"smiles": "C[C@@H]1NC(=O)[C@H](CCC(N)=O)NC(=O)c2cc([N+](=O)[O-])cc(I)c2NCCC[C@@H](C(N)=O)NC1=O", "values": [
      {"measurement": "IC50", "setting": "[9]", "result": "> 100 µM (active)"}
    ]},
    {"smiles": "Oc1ccccc1C1NN=C(c2ccccc2)S1", "note": "(centres undefined)", "values": [
      {"measurement": "IC50", "setting": "[6]", "result": "> 67.5 µM (inactive)"},
      {"measurement": "EC50", "setting": "[7]", "result": "> 67.5 µM (inactive)"}
    ]},
    {"smiles": "CCc1nnc(NC(=O)CSc2nnc(-c3ccoc3C)n2CC(C)C)s1", "values": [
      {"measurement": "IC50", "setting": "[10]", "result": "> 100 µM (not active)"}
    ]},
    {"smiles": "COc1cc(CNc2ccc3[nH]c(O)nc3c2)cc(Cl)c1OCC(=O)NC(C)(C)C", "values": [
      {"measurement": "IC50", "setting": "[11]", "result": "> 50 µM (not active)"},
      {"measurement": "IC50", "setting": "[12]", "result": "> 50 µM (not active)"},
      {"measurement": "CC50", "setting": "[13]", "result": "> 40 µM (active)"},
      {"measurement": "IC50", "setting": "[9]", "result": "> 51.4 µM (active)"},
      {"measurement": "IC50", "setting": "Protein Tat", "result": "50.5 µM (inconclusive)"}
    ]}
  ]
}
